Results taken from patent US10912846B2, “Molecular probes for chemiluminescence imaging and in vivo detection of target molecules” (ARIZONA BOARD OF REGENTS ON BEHALF OF THE UNIVERSITY OF …, priority 2015, dated 2021).

Assays:
[1] = tested on: gingival hemorrhage; test: CLI of gingival hemorrhage; assay type: in vivo, nude mice; details: 200 μL of 2.0×10^−4 M
Method: (§1) Additional experiments were carried out using test mice suffering from gingival hemorrhage and mechanical injury. For example, nude mice were fed with cooked yolk for 1 week until gingival hemorrhage was visually identified. Various images were acquired (e.g., 0, 20 (supine position), and 30 min (prone position)) after the injection of 200 μL of 2.0×10^−4 M probe 3 or luminol (data not shown). […] Also, images of injuries (e.g., mechanical crush and syringe needle piecing, both on the end to tail) were acquired 0, 20, and 40 min, respectively, after the injection of 200 μL of probe 3 (2.0×10^−4 M).

[2] = In vitro chemiluminescence from oxidation by non-H2O2 ROS; details: PBS pH 7.4, ROS 1.0×10^−3 M, probe 1.0×10^−6 M
Method: (§2) Solutions of 3 and luminol were prepared in 0.01 M PBS (pH of 7.4). For all ROS other than H2O2, the reaction was carried out by mixing 200 μL of the ROS solution (1.0×10^−3 M) with 800 μL of the solution of probe 3 or luminol (1.0×10^−6 M). The voltage of the photomultiplier tube (PMT) was set at −400 V. In the case of H2O2, 200 μL of its solution (1.0×10^−2 M) was used, and the voltage of PMT was set at −800 V; the other conditions were identical to those used for the other ROS.

[3] = tested on: acute dermatitis; test: CLI of acute dermatitis induced by dimethylbenzene; assay type: in vivo, mice; details: 720 μg/kg; 30, 60, 90 min
[4] = mouse, in vivo
Method: Nude mice (24-26 g) were anesthetized followed by intraperitoneal injection of 3 or 2 (in 0.01 M PBS pH 7.4) using a dose of 660 μg of 3 or 2 per kilogram of the mouse body weight. The mice were housed individually and received food ad libitum. Urine was collected every 1 to 2 hours, and the collected samples were diluted to appropriate concentration with PBS. Probe 3 in each urine sample was quantified by comparing the intensity of its chemiluminescence resulting from its oxidation by NaClO with those of standard solutions. […] The potential toxicity of the probe was further evaluated with a sample of 50 mice using a dose of probe 3 at 72 mg/kg body weight of mouse.

[5] = Acute toxicity in mice; details: mouse, in vivo
From the text: The results are summarized in (a).

[6] = tested on: mechanical crush and syringe needle piecing; test: CLI of mechanical injuries on the tail; assay type: in vivo, mice; details: 200 μL of 2.0×10^−4 M; 0, 20, 40 min
Method: as §1

[7] = tested on: raw 264.7 cells; human monocyte; test: In vitro response to phagocyte respiratory burst; assay type: cell-based; details: 5.0×10^−5 M; PMA or FMLP 100 μg/ml
Method: No chemiluminescence was detected in the absence of phorbol 12-myristate 13-acetate for (PMA) or N-formylmethionyl-leucyl-phenyl-alanine (FMLP). (a) CL kinetics resulting from the response of probe 3 to respiratory burst of raw 264.7 cells when stimulated with PMA (100 μg/ml). (b) CL kinetics resulting from the response of probe 3 to respiratory burst of human monocyte (10^6 cells/ml) in hank's when stimulated by FMLP (100 μg/ml). The kinetics curves were recorded with an MPI-A Chemiluminescence Analyzer with the use of probe 3 or luminol (5.0×10^−5 M).

[8] = target: T1, HRP (Armoracia rusticana, UniProt P00433); test: CLI of subcutaneously injected HRP in nude mice; assay type: in vivo
T1 construct: purchased Sigma-Aldrich
T1 sequence (P00433 31-338 limits assumed): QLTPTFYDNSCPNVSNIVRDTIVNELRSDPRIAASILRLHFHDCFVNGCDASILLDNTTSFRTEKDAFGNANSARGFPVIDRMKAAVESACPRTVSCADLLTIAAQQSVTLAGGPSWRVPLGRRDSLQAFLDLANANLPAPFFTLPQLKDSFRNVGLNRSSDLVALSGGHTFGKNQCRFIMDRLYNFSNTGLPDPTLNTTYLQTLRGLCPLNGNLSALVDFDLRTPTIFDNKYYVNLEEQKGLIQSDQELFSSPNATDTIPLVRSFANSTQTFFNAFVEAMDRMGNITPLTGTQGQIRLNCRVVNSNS
Method: CLI of HRP in the same nude mouse with the use of compound 3 as probe (7.2 mg per kg body weight, intraperitoneally injected). Against PBS-only control in the left foreleg, the total activity of HRP introduced into the right foreleg, the left hind leg, and the right hind leg were 0.0250, 0.125, and 0.250 U, respectively. The moment when the administration of 3 was completed was set as −20 min (panel (i)) with 0 min (panel (ii)) being the moment when the subcutaneous injection of HRP was finished. The circles in panel (ii) indicate both the sites of HRP introduction and the ROI for which photon-counting integration was performed.
Imaging of HRP was acquired in nude mice pre-injected with compound 3 (720 μg per kg body weight) against a control mouse intraperitoneally injected with luminol. […] To achieve significant CL intensity and to assure the accuracy of photon counting, the probe at a concentration of 720 μg/kg was used in subsequent studies in nude mice whose right foreleg, left hind leg, and right hind leg were injected with HRP of a total activity of 12.5 U, 25.0 U, and 50.0 U, respectively. Significant luminescence was produced and remained stable in a time window of 40 to 120 minutes following the introduction of HRP in each of the legs (data not shown).
In subsequent experiments, a dose of 7.2 mg/kg of compound 3 was used with which a total activity of HRP as low as 0.025 U could be detected. The CL produced intensified as the concentration of HRP increased, yielding a positive linear relationship.
Nude mice used in this work, each weighing 20-26 g, were obtained from the Laboratory Animal Center of the Fourth Military Medical University, China. Research and animal sacrifice protocols are in accordance with the principles and guidelines adopted by the Fourth Military Medical University. The mice were kept for an acclimatization period of 7 days under laboratory conditions (temperature maintained at 22±2° C., 12-hr cycles of alternating illumination and darkness, and free access to food and water) prior to any imaging experiments. […]

[9] = Solubility in alkaline and PBS solutions; assay type: physicochemical; details: alkaline and phosphate-buffered saline solutions (PBS, pH=7.4)
Method: Oxidation of compound 3 was accompanied by vivid green luminescence when the excited oxidation product (compound 2) underwent deactivation (see FIG. 1).
Solids of compound 3 or luminol were dissolved in 0.01 M NaOH to a final concentration of 8.0×10^−3 M, and the resulting solutions were stored at 4° C. in the absence of light. The solutions were further diluted by using sterile phosphate-buffered saline (PBS, 0.01 M and pH 7.4) as desired in various studies. PMA was dissolved in DMSO to prepare 500 µg/ml solution. HRP was freshly prepared by dilution using sterile PBS.

[10] = tested on: HRP; test: Oxidation by H2O2 catalyzed by trace HRP in vitro; assay type: biochemical, horseradish
[11] = In vitro chemiluminescence kinetics of oxidation by H2O2
Method: as §2

[12] = target: T2, HRP-Ab (Armoracia rusticana, UniProt P00433); test: CLI of HRP-labeled goat anti-mouse IgG (HRP-Ab) in nude mice; assay type: in vivo
T2 construct: purchased ZSGB-Bio Inc. ZB2305
T2 sequence (P00433 31-338 limits assumed): T1 sequence (P00433 31-338 limits assumed)
Method: The use of the probe was validated using an enzyme-linked immunosorbent assay (ELISA) by imaging in nude mice the HRP-labeled goat anti-mouse IgG (HRP-Ab), a commercially available and commonly used HRP-antibody conjugate. To assess the sensitivity of the CLI, different amounts of the conjugate were administered to three of the legs of a nude mouse with the left foreleg injected with PBS only being the control. […] The brightness of the emission is proportional to the amount of HRP-Ab present. […] However, in the two hind legs, whose total activity of HRP is at 0.015 and 0.030 U, respectively, the emission of light was vivid, and the reduction in luminescence intensity was only about 10% after 60 minutes following the probe administration.
Nude mice used in this work, each weighing 20-26 g, were obtained from the Laboratory Animal Center of the Fourth Military Medical University, China. Research and animal sacrifice protocols are in accordance with the principles and guidelines adopted by the Fourth Military Medical University. The mice were kept for an acclimatization period of 7 days under laboratory conditions (temperature maintained at 22±2° C., 12-hr cycles of alternating illumination and darkness, and free access to food and water) prior to any imaging experiments. Nude mice were anesthetized by isoflurane inhalation, following which 200 μL of a solution of compound 3 or luminol in PBS of pH 7.4 was injected intraperitoneally. For the imaging of HPR or HRP-Ab, the probe solution (2.0×10^−3 M) was first injected, followed by the subcutaneous injection 20 minutes after of PBS and HRP (variable amount in 0.01 M PBS) solutions into the legs of nude mice. The control experiments with the use of luminol were conducted under otherwise identical conditions. IVIS 200 bioluminescence imaging system (Caliper Life Sciences) (f/stop, 1; no optical filter) was used for all imaging experiments. Exposure time was set at 5 minutes with moderate sensitivity, and the binning and field of view (FOV) are 8 and 13.3 cm, respectively. […]

[13] = tested on: inflammation; test: CLI of inflammation caused by intramuscular injection of PBS; assay type: in vivo, nude mice; details: PBS intramuscularly two days prior; compared with 18FDG-PET/CT
Method: Furthermore, inflammation caused by intramuscular injection of PBS was also clearly imaged using probe 3 and in comparison with results using PET/CT (data not shown). Nude mice were intramuscularly injected with PBS two days prior to said imaging experiments. For the verification of the induced inflammation, 18-Fluorodeoxyglucose-Positron emission tomography/Computed tomography (18FDG-PET/CT) scan, from feet to head, was performed 12 h after the CLI experiment. The test mouse was anesthetized with isoflurane inhalation followed by intraperitoneal injection of 3.7 MBq of ^18FDG. An uptake time of 60 min was allowed before acquisition.

O=C(O)c1cc2c(=O)[nH][nH]c(=O)c2cc1-c1c2ccc(=O)cc-2oc2cc(O)ccc12 [compound 3]
identification of sites of inflammation by luminescence [1]: clearly identified
CL response / sensitivity to ROS compared with luminol [2]: more sensitive
CL response / sensitivity to ROS compared with luminol ([2]; listed as probe 3): much stronger responses
CLI of acute dermatitis [3]: highly efficient
metabolism during the imaging procedure [4]: not quickly metabolized
uptake, IP versus IV injection [4]: comparable uptakes
probe cleared by uresis ([4]; nude): about 90%
acute toxicity [5]: does not appear that the probe or the resulting luminophore has significant acute toxicity
identification of sites of inflammation by luminescence [6]: clearly identified
sensitivity for detection of ROS compared with luminol [7]: much more sensitive
HRP activity at which production of CL appeared saturated ([8]; 720 μg/kg): about 25.0 U
lowest total activity of HRP detected ([8]; 7.2 mg/kg): ≤ 0.025 U
dosage at which CL could be detected ([8]; mice): about 2 μg/kg
solubility [9]: readily soluble
luminescence from oxidation by H2O2 ([10]; HRP 5.0×10−5 mg/mL added): intense emission of a green light
luminescence from oxidation by H2O2 ([10]; no HRP, probe 5.0×10^−3 M, H2O2 1.0×10^−4 M): no detectable luminescence
duration of luminescence ([11]; H2O2 1.0×10^−2 M, PMT −800 V): more than 18 days
sensitivity toward H2O2 compared with the other ROS ([11]; PMT −800 V needed for detection): insensitivity
reduction in luminescence intensity ([12]; 7.2 mg/kg IP, hind legs 0.015 and 0.030 U, after 60 minutes): about 10%
luminescence at HRP-Ab site ([12]; hind legs, 0.015 and 0.030 U): vivid
luminescence at HRP-Ab site ([12]; right foreleg, 0.0030 U HRP-Ab): inadequate to produce any significant photon count or luminescence
imaging of inflammation [13]: clearly showed inflammation

Nc1cccc2c(=O)[nH][nH]c(=O)c12 [luminol, Luminol, reference compound]
CLI of acute dermatitis [3]: failed to produce any detectable signals
time for luminescence to decay to the baseline ([11]; H2O2 1.0×10^−2 M, PMT −800 V): about 600 s
